# Source: patent publication US20050244486A1, “Topical methadone compositions and methods for using the same” (priority 2004, published 2005)
# “And” between values parts separate entries of the source, which are not always exact repeats. Identical values can stand only once. Like-named read-outs stand apart in the source and are kept apart here.
# Assays:
# [1] = Solubility of methadone in different solvents; assay type: physicochemical
# Experimental: In this experiment, the solubility of methadone in a number of different solvents was evaluated. The solvents evaluated were mineral oil, N-methyl-2-pyrrolidone, diisopropyl adipate, DEET, PEG, Di (propylene glycol), dehydrated alcohol and water. […] The stability of the solutions was also evaluated.
# [2] = Study 1: concentrations of methadone in rat plasma, topical administration versus intravenous injection; assay type: in vivo
# Experimental: The test article was administered intravenously (IV) through the tail vein to animals in Group A. The injection was performed slowly. A gauze pad (1×1 cm) Saturated with 0.2 mL of the appropriate test article was applied to the clipped site on the back of the animals in Groups 2 and 3. The gauze pad was secured by occlusive tape. The animal was wrapped in gauze, which was held in place with Zonas porous tape.
# Blood Collection: Blood (0.5 mL) was collected into sodium heparin tubes at the appropriate time points. The samples were centrifuged at approximately 2800 rpm at 2-8 degrees Celsius for approximately 15 minutes. Plasma was collected.
smiles,measurement,setting,value
"CCC(=O)C(CC(C)N(C)C)(c1ccccc1)c1ccccc1 (stereo not drawn) [Methadone, 6-dimethylamino-4,4-diphenyl-3-hepatone]",solubility at 24 h,"[1]; organic solvent or mixture, DEET (97%), 24 hour",137 mg/mL
same,solubility at 48 h,"[1]; organic solvent or mixture, DEET (97%), 48 hour",132 mg/mL
same,solubility at 3 h,"[1]; organic solvent or mixture, Dehydrated Alcohol, 3 hour",114 mg/mL
same,solubility at 6 h,"[1]; organic solvent or mixture, Dehydrated Alcohol, 6 hour",113 mg/mL
same,solubility at 24 h,"[1]; organic solvent or mixture, Dehydrated Alcohol, 24 hour",115 mg/mL
same,solubility at 48 h,"[1]; organic solvent or mixture, Dehydrated Alcohol, 48 hour",118 mg/mL
same,solubility at 3 h,"[1]; organic solvent or mixture, Di(propylene glycol), 3 hour",56.2 mg/mL
same,solubility at 6 h,"[1]; organic solvent or mixture, Di(propylene glycol), 6 hour",56.5 mg/mL
same,solubility at 24 h,"[1]; organic solvent or mixture, Di(propylene glycol), 24 hour",54.9 mg/mL
same,solubility at 48 h,"[1]; organic solvent or mixture, Di(propylene glycol), 48 hour",58.7 mg/mL
same,solubility at 3 h,"[1]; organic solvent or mixture, N-methyl-2-pyrrolidone, 3 hour",262 mg/mL
same,solubility at 6 h,"[1]; organic solvent or mixture, N-methyl-2-pyrrolidone, 6 hour",270 mg/mL
same,solubility at 24 h,"[1]; organic solvent or mixture, N-methyl-2-pyrrolidone, 24 hour",347 mg/mL
same,solubility at 48 h,"[1]; organic solvent or mixture, N-methyl-2-pyrrolidone, 48 hour",342 mg/mL
same,solubility at 3 h,"[1]; organic solvent or mixture, PEG - 400, 3 hour",39.7 mg/mL
same,solubility at 6 h,"[1]; organic solvent or mixture, PEG - 400, 6 hour",39.9 mg/mL
same,solubility at 24 h,"[1]; organic solvent or mixture, PEG - 400, 24 hour",38.8 mg/mL
same,solubility at 48 h,"[1]; organic solvent or mixture, PEG - 400, 48 hour",36.8 mg/mL
same,solubility at 24 h,"[1]; organic solvent or mixture, diisopropyl adipate, 24 hour",360 mg/mL
same,solubility at 3 h,"[1]; thermodynamic from solid, water, 3 hour",0.217 mg/mL
same,solubility at 6 h,"[1]; thermodynamic from solid, water, 6 hour",0.228 mg/mL
same,solubility at 24 h,"[1]; thermodynamic from solid, water, 24 hour",0.224 mg/mL
same,solubility at 48 h,"[1]; thermodynamic from solid, water, 48 hour",0.225 mg/mL
same,Irritation of rat skin by topical application,"[2]; Study 1, topical methadone solutions on rat skin over the application time",non-irritating
same,Concentrations of Methadone in Rat Plasma Samples,"[2]; Study 1 Group A: I.V. tail vein, 0.25 mL Test Article 1 (0.5 mg/mL Methadone-Saline Solution), 2 min, individual rats A1-A3",67.8 ng/mL and 69.5 ng/mL
same,Concentrations of Methadone in Rat Plasma Samples,"[2]; Study 1 Group A: I.V. tail vein, 0.25 mL Test Article 1 (0.5 mg/mL Methadone-Saline Solution), 5 min, individual rats A1-A3",68.9 ng/mL and 56.0 ng/mL
same,Concentrations of Methadone in Rat Plasma Samples,"[2]; Study 1 Group A: I.V. tail vein, 0.25 mL Test Article 1 (0.5 mg/mL Methadone-Saline Solution), 10 min, individual rats A1-A3",57.6 ng/mL and 42.3 ng/mL
same,Concentrations of Methadone in Rat Plasma Samples,"[2]; Study 1 Group A: I.V. tail vein, 0.25 mL Test Article 1 (0.5 mg/mL Methadone-Saline Solution), 30 min, individual rats A1-A3",30.9 ng/mL and 35.8 ng/mL
same,Concentrations of Methadone in Rat Plasma Samples,"[2]; Study 1 Group A: I.V. tail vein, 0.25 mL Test Article 1 (0.5 mg/mL Methadone-Saline Solution), 60 min, individual rats A1-A3",24.5 ng/mL and 22.7 ng/mL
same,Concentrations of Methadone in Rat Plasma Samples,"[2]; Study 1 Group B: topical dorsal flank, 1 × 1 cm gauze pad with 0.2 mL Test Article 2 (Methadone-Diisopropyl Adipate Solution 23.9%), 10 min, individual rats B1-B3",BQL (below quantification limit (1.00 ng/mL))
same,Concentrations of Methadone in Rat Plasma Samples,"[2]; Study 1 Group B: topical dorsal flank, 1 × 1 cm gauze pad with 0.2 mL Test Article 2 (Methadone-Diisopropyl Adipate Solution 23.9%), 20 min, individual rats B1-B3",3.25 ng/mL and 3.18 ng/mL
same,Concentrations of Methadone in Rat Plasma Samples,"[2]; Study 1 Group B: topical dorsal flank, 1 × 1 cm gauze pad with 0.2 mL Test Article 2 (Methadone-Diisopropyl Adipate Solution 23.9%), 45 min, individual rats B1-B3",10.4 ng/mL and 7.24 ng/mL
same,Concentrations of Methadone in Rat Plasma Samples,"[2]; Study 1 Group B: topical dorsal flank, 1 × 1 cm gauze pad with 0.2 mL Test Article 2 (Methadone-Diisopropyl Adipate Solution 23.9%), 60 min, individual rats B1-B3",15.1 ng/mL and 12.4 ng/mL
same,Concentrations of Methadone in Rat Plasma Samples,"[2]; Study 1 Group B: topical dorsal flank, 1 × 1 cm gauze pad with 0.2 mL Test Article 2 (Methadone-Diisopropyl Adipate Solution 23.9%), 120 min, individual rats B1-B3",44.1 ng/mL and 57.8 ng/mL and 26.2 ng/mL
same,Concentrations of Methadone in Rat Plasma Samples,"[2]; Study 1 Group C: topical dorsal flank, 1 × 1 cm gauze pad with 0.2 mL Test Article 3 (Methadone-DEET Solution 10%), 10 min, individual rats C1-C3",BQL (below quantification limit (1.00 ng/mL))
same,Concentrations of Methadone in Rat Plasma Samples,"[2]; Study 1 Group C: topical dorsal flank, 1 × 1 cm gauze pad with 0.2 mL Test Article 3 (Methadone-DEET Solution 10%), 20 min, individual rats C1-C3",BQL (below quantification limit (1.00 ng/mL))
same,Concentrations of Methadone in Rat Plasma Samples,"[2]; Study 1 Group C: topical dorsal flank, 1 × 1 cm gauze pad with 0.2 mL Test Article 3 (Methadone-DEET Solution 10%), 45 min, individual rats C1-C3",2.66 ng/mL and 2.84 ng/mL
same,Concentrations of Methadone in Rat Plasma Samples,"[2]; Study 1 Group C: topical dorsal flank, 1 × 1 cm gauze pad with 0.2 mL Test Article 3 (Methadone-DEET Solution 10%), 60 min, individual rats C1-C3",3.27 ng/mL and 4.16 ng/mL
same,Concentrations of Methadone in Rat Plasma Samples,"[2]; Study 1 Group C: topical dorsal flank, 1 × 1 cm gauze pad with 0.2 mL Test Article 3 (Methadone-DEET Solution 10%), 120 min, individual rats C1-C3",6.22 ng/mL and 5.97 ng/mL
same,concentration at 45 min,"[2]; rat, in vivo, 0.2 mL of 10% methadone solution, Study 1 Group C: topical dorsal flank, 1 × 1 cm gauze pad with 0.2 mL Test Article 3 (Methadone-DEET Solution 10%), 45 min, individual rats C1-C3, read-out: Concentrations of Methadone in Rat Plasma Samples",3.83 ng/mL
same,concentration at 60 min,"[2]; rat, in vivo, 0.2 mL of 10% methadone solution, Study 1 Group C: topical dorsal flank, 1 × 1 cm gauze pad with 0.2 mL Test Article 3 (Methadone-DEET Solution 10%), 60 min, individual rats C1-C3, read-out: Concentrations of Methadone in Rat Plasma Samples",3.88 ng/mL
same,concentration at 120 min,"[2]; rat, in vivo, 0.2 mL of 10% methadone solution, Study 1 Group C: topical dorsal flank, 1 × 1 cm gauze pad with 0.2 mL Test Article 3 (Methadone-DEET Solution 10%), 120 min, individual rats C1-C3, read-out: Concentrations of Methadone in Rat Plasma Samples",6.85 ng/mL
same,concentration at 10 min,"[2]; rat, in vivo, 0.2 mL of 23.9% methadone solution, Study 1 Group B: topical dorsal flank, 1 × 1 cm gauze pad with 0.2 mL Test Article 2 (Methadone-Diisopropyl Adipate Solution 23.9%), 10 min, individual rats B1-B3, read-out: Concentrations of Methadone in Rat Plasma Samples",3.02 ng/mL
same,concentration at 20 min,"[2]; rat, in vivo, 0.2 mL of 23.9% methadone-diisopropyl adipate solution, Study 1 Group B: topical dorsal flank, 1 × 1 cm gauze pad with 0.2 mL Test Article 2 (Methadone-Diisopropyl Adipate Solution 23.9%), 20 min, individual rats B1-B3, read-out: Concentrations of Methadone in Rat Plasma Samples",4.14 ng/mL
same,concentration at 45 min,"[2]; rat, in vivo, 0.2 mL of 23.9% methadone-diisopropyl adipate solution, Study 1 Group B: topical dorsal flank, 1 × 1 cm gauze pad with 0.2 mL Test Article 2 (Methadone-Diisopropyl Adipate Solution 23.9%), 45 min, individual rats B1-B3, read-out: Concentrations of Methadone in Rat Plasma Samples",11.5 ng/mL
same,concentration at 60 min,"[2]; rat, in vivo, 0.2 mL of 23.9% methadone-diisopropyl adipate solution, Study 1 Group B: topical dorsal flank, 1 × 1 cm gauze pad with 0.2 mL Test Article 2 (Methadone-Diisopropyl Adipate Solution 23.9%), 60 min, individual rats B1-B3, read-out: Concentrations of Methadone in Rat Plasma Samples",11.3 ng/mL
same,concentration at 2 min,"[2]; rat, in vivo, iv, 0.125 mg/animal, Study 1 Group A: I.V. tail vein, 0.25 mL Test Article 1 (0.5 mg/mL Methadone-Saline Solution), 2 min, individual rats A1-A3, read-out: Concentrations of Methadone in Rat Plasma Samples",73.5 ng/mL
same,concentration at 5 min,"[2]; rat, in vivo, iv, 0.125 mg/animal, Study 1 Group A: I.V. tail vein, 0.25 mL Test Article 1 (0.5 mg/mL Methadone-Saline Solution), 5 min, individual rats A1-A3, read-out: Concentrations of Methadone in Rat Plasma Samples",68.7 ng/mL
same,concentration at 10 min,"[2]; rat, in vivo, iv, 0.125 mg/animal, Study 1 Group A: I.V. tail vein, 0.25 mL Test Article 1 (0.5 mg/mL Methadone-Saline Solution), 10 min, individual rats A1-A3, read-out: Concentrations of Methadone in Rat Plasma Samples",61.8 ng/mL
same,concentration at 30 min,"[2]; rat, in vivo, iv, 0.125 mg/animal, Study 1 Group A: I.V. tail vein, 0.25 mL Test Article 1 (0.5 mg/mL Methadone-Saline Solution), 30 min, individual rats A1-A3, read-out: Concentrations of Methadone in Rat Plasma Samples",35.3 ng/mL
same,concentration at 60 min,"[2]; rat, in vivo, iv, 0.125 mg/animal, Study 1 Group A: I.V. tail vein, 0.25 mL Test Article 1 (0.5 mg/mL Methadone-Saline Solution), 60 min, individual rats A1-A3, read-out: Concentrations of Methadone in Rat Plasma Samples",22.8 ng/mL
